Measurements from patent US8288438B2, “Methods for avoiding edema in the treatment or prevention of PPARγ-responsive diseases, including cancer” (Metabolex, Inc., priority 2005, dated 2012).

Experiments:
Type in all cases: in vivo
C57BL/6j ob/ob Mice [1] = assay: anti-diabetic activities in the C57BL/6j ob/ob Mice model (Example 20); conditions: for minimal effective dose: Mus musculus, oral gavage once a day for 1-4 days, plasma glucose 6 hours after dose, read-out: Potency (glucose lowering); for Insulin Level compared with vehicle: ob/ob mice, oral gavage
Description: (§1) The anti-diabetic activities of the compounds were evaluated in the C57BL/6j ob/ob Mice model.
(§2) Male, 7-9 weeks old, C57BL/6J ob/ob mice were purchased from The Jackson Laboratory (Bar Harbor, Me., USA). Animals were housed (4-5 mice/cage) under standard laboratory conditions at 22±3° C. temperature and 50±20% relative humidity, and were maintained on a diet of Purina rodent chow and water ad libitum. Prior to treatment, blood was collected from the tail vein of each animal. Mice that had non-fasting plasma glucose levels between 250 and 500 mg/dl were used. Each treatment group consisted of 8-10 mice that were distributed so that the mean glucose levels were equivalent in each group at the start of the study. Mice were dosed orally by gavage once a day for 1-4 days with vehicle and one or more dose of test compound at a dose ranging from 5 to 125 mg/kg. compounds were delivered in a liquid formulation containing 5% (v/v) dimethyl sulfoxide (DMSO), 1% (v/v) Tween 80® and 0.9% (w/v) methylcellulose. The gavage volume was 10 ml/kg. Blood samples were taken at 6 hours after the each dose and analyzed for plasma glucose. Food intake and body weight were measured daily. Plasma glucose concentrations were determined colorimetrically using a commercial glucose oxidase method (Sigma Chemical Co, St. Louis, Mo., USA). Significant difference between groups (comparing drug-treated to vehicle-treated) was evaluated using the Student unpaired t-test.

C57BL/6j ob/ob Mice [2] = assay: glucose lowering activity of halofenate analogs in C57BL/6J ob/ob mice (Example 14); conditions: (−) analogs, single dose 150 mg/kg
Description: Male, 8-9 weeks old, C57BL/6J ob/ob mice were purchased from The Jackson Laboratory (Bar Harbor, Me., USA). Animals were housed (4-5 mice/cage) under standard laboratory conditions at 22±3° C. temperature and 50±20% relative humidity, and were maintained on a diet of Purina rodent chow and water ad libitum. Prior to treatment, blood was collected from the tail vein of each animal. Mice that had non-fasting plasma glucose levels between 250 and 500 mg/dl were used. Each treatment group consisted of 8-10 mice that were distributed so that the mean glucose levels were equivalent in each group at the start of the study. Mice were dosed orally by gavage once a day for 1-3 days with either vehicle, (−) halofenic acid, (±) analog 14, 29, 33, 34, 35, 36, 37, or 38 at 125 mg/kg or (−) analog 29, 36, 37 or 38 at 150 mg/kg. compounds were delivered in a liquid formulation containing 5% (v/v) dimethyl sulfoxide (DMSO), 1% (v/v) tween 80 and 0.9% (w/v) methylcellulose. The gavage volume was 10 ml/kg. Blood samples were taken at 6 hours after the each dose and analyzed for plasma glucose. Food intake and body weight were measured daily. Plasma glucose concentrations were determined calorimetrically using glucose oxidase method (Sigma Chemical Co, St. Louis, Mo., USA). Significant difference between groups (comparing drug-treated to vehicle-treated) was evaluated using the Student unpaired t-test.

C57BL/6j ob/ob Mice [3] = assay: anti-diabetic activities in the C57BL/6j ob/ob Mice model (Example 13); conditions: for Insulin Level compared with vehicle: ob/ob mice, oral gavage; for Potency (glucose lowering): oral gavage once a day for 1-4 days, 5 to 125 mg/kg, plasma glucose 6 hours after dose
Description: as §1
as §2, with “80 (and” for “80® and”, “Blood samples were taken at 6 hours after the each dose and analyzed for plasma glucose.” left out, “Plasma glucose concentrations were determined colorimetrically using a commercial glucose oxidase method (Sigma Chemical Co, St.” left out, “t-test. […]” for “t-test.”

SMILES: CC(=O)NCCOC(=O)C(Oc1cccc(C(F)(F)F)c1)c1cccc(C(F)(F)F)c1 (stereo not shown) [Compound 144]
- minimal effective dose (C57BL/6j ob/ob Mice [1]): ≤ 125 mg/kg
- Insulin Level compared with vehicle (C57BL/6j ob/ob Mice [1]): Lower

SMILES: O=C(O)C(Oc1ccc(C(F)(F)F)cc1Cl)c1cccc(C(F)(F)F)c1 (stereo not shown) [Compound 85]
- minimal effective dose (C57BL/6j ob/ob Mice [1]): ≤ 125 mg/kg
- Insulin Level compared with vehicle (C57BL/6j ob/ob Mice [1]): Lower

SMILES: O=C(NCCOC(=O)C(Oc1cccc(C(F)(F)F)c1)c1ccc(Cl)cc1)c1ccccc1 (single isomer, unassigned; (-)) [(−)Analog 36]
- plasma glucose concentrations vs vehicle (in words) (C57BL/6j ob/ob Mice [2]): significantly reduced plasma glucose concentrations at 6 hours

SMILES: O=C(O)C(Oc1cccc(C(F)(F)F)c1)c1ccc(C(F)(F)F)cc1 (stereo not shown) [Compound 86]
- minimal effective dose (C57BL/6j ob/ob Mice [1]): ≤ 125 mg/kg
- Insulin Level compared with vehicle (C57BL/6j ob/ob Mice [1]): Lower

SMILES: O=C(O)C(Oc1ccc(Cl)cc1-c1nc2ccccc2o1)c1cccc(Cl)c1 (racemic) [Compound I-194]
- Insulin Level compared with vehicle (C57BL/6j ob/ob Mice [3]): Lower
- Potency (glucose lowering) (C57BL/6j ob/ob Mice [3]): +++ (effective for glucose lowering at a dose of ≦25 mg/kg)

SMILES: O=C(O)C(Oc1ccc(C(F)(F)F)cc1-c1nc2ccccc2o1)c1cccc(C(F)(F)F)c1 (racemic) [Compound I-89]
- Insulin Level compared with vehicle (C57BL/6j ob/ob Mice [3]): Lower
- Potency (glucose lowering) (C57BL/6j ob/ob Mice [3]): +++ (effective for glucose lowering at a dose of ≦25 mg/kg)

SMILES: CC(=O)NCCOC(=O)C(Oc1cccc(C(F)(F)F)c1)c1ccc(C(F)(F)F)cc1 (stereo not shown) [Compound 142]
- minimal effective dose (C57BL/6j ob/ob Mice [1]): ≤ 125 mg/kg
- Insulin Level compared with vehicle (C57BL/6j ob/ob Mice [1]): Lower

SMILES: NC(=O)COC(=O)C(Oc1cccc(C(F)(F)F)c1)c1ccc(Cl)cc1 (single isomer, unassigned; (-)) [(−)Analog 37]
- plasma glucose concentrations vs vehicle (in words) (C57BL/6j ob/ob Mice [2]): significantly reduced plasma glucose concentrations at 6 hours

SMILES: CC(=O)NCCOC(=O)C(Oc1ccccc1C(F)(F)F)c1ccc(C(F)(F)F)cc1 (stereo not shown) [Compound 146]
- minimal effective dose (C57BL/6j ob/ob Mice [1]): > 125 mg/kg
- Insulin Level compared with vehicle (C57BL/6j ob/ob Mice [1]): Lower

SMILES: CN(C)C(=O)COC(=O)C(Oc1cccc(C(F)(F)F)c1)c1ccc(Cl)cc1 (single isomer, unassigned; (-)) [(−)Analog 38]
- plasma glucose concentrations vs vehicle (in words) (C57BL/6j ob/ob Mice [2]): significantly reduced plasma glucose concentrations at 6 hours

SMILES: COc1ccc(C(Oc2ccc(Cl)cc2-c2nc3ccccc3o2)C(=O)O)cc1 (racemic) [Compound I-193]
- Insulin Level compared with vehicle (C57BL/6j ob/ob Mice [3]): Lower
- Potency (glucose lowering) (C57BL/6j ob/ob Mice [3]): +++ (effective for glucose lowering at a dose of ≦25 mg/kg)

SMILES: O=C(O)C(Oc1ccc(Cl)cc1-c1nc2ccccc2o1)c1cccc(C(F)(F)F)c1 (racemic) [Compound I-191]
- Insulin Level compared with vehicle (C57BL/6j ob/ob Mice [3]): Lower
- Potency (glucose lowering) (C57BL/6j ob/ob Mice [3]): +++ (effective for glucose lowering at a dose of ≦25 mg/kg)

SMILES: O=C(O)C(Oc1ccc(C(F)(F)F)cc1Cl)c1ccc(C(F)(F)F)cc1 (stereo not shown) [Compound 89]
- minimal effective dose (C57BL/6j ob/ob Mice [1]): ≤ 125 mg/kg
- Insulin Level compared with vehicle (C57BL/6j ob/ob Mice [1]): Lower

SMILES: O=C(O)C(Oc1ccc(C(F)(F)F)cc1)c1ccc(C(F)(F)F)cc1 (stereo not shown) [Compound 83]
- minimal effective dose (C57BL/6j ob/ob Mice [1]): ≤ 125 mg/kg
- Insulin Level compared with vehicle (C57BL/6j ob/ob Mice [1]): Lower

SMILES: O=C(O)C(Oc1ccc(C(F)(F)F)cc1-c1nc2ccccc2o1)c1ccccc1 (racemic) [Compound I-92]
- Insulin Level compared with vehicle (C57BL/6j ob/ob Mice [3]): Lower
- Potency (glucose lowering) (C57BL/6j ob/ob Mice [3]): +++ (effective for glucose lowering at a dose of ≦25 mg/kg)

SMILES: CC(Oc1ccc(C(F)(F)F)cc1)(C(=O)O)c1ccc(C(F)(F)F)cc1 (stereo not shown) [Compound 121, 2-(4-Trifluoromethyl-phenoxy)-2-(4-trifluoromethyl-phenyl)-propionic acid]
- minimal effective dose (C57BL/6j ob/ob Mice [1]): ≤ 125 mg/kg
- Insulin Level compared with vehicle (C57BL/6j ob/ob Mice [1]): Lower

SMILES: CC(=O)NCCOC(=O)C(Oc1cc(C(F)(F)F)cc(C(F)(F)F)c1)c1ccc(C(F)(F)F)cc1 (stereo not shown) [Compound 143]
- minimal effective dose (C57BL/6j ob/ob Mice [1]): ≤ 125 mg/kg
- Insulin Level compared with vehicle (C57BL/6j ob/ob Mice [1]): Lower

SMILES: O=C(O)C(Oc1ccc(C(F)(F)F)cc1)c1cccc(C(F)(F)F)c1 (single isomer, unassigned; (-)) [(−)-39, (4-trifluoromethyl-phenoxy)-(3-trifluoromethyl-phenyl)acetic acid]
- minimal effective dose (C57BL/6j ob/ob Mice [1]): ≤ 125 mg/kg
- Insulin Level compared with vehicle (C57BL/6j ob/ob Mice [1]): Lower

SMILES: CC(Oc1ccc(C(F)(F)F)cc1-c1nc2ccccc2o1)(C(=O)O)c1ccccc1 (stereo not shown) [Ia-366]
- Insulin Level compared with vehicle (C57BL/6j ob/ob Mice [3]): Lower

SMILES: CC(=O)NCCOC(=O)C(Oc1ccc(C(F)(F)F)cc1)c1ccc(C(F)(F)F)cc1 (stereo not shown) [Compound 145]
- minimal effective dose (C57BL/6j ob/ob Mice [1]): ≤ 125 mg/kg
- Insulin Level compared with vehicle (C57BL/6j ob/ob Mice [1]): Lower

SMILES: O=C(O)C(Oc1ccccc1-c1nc2ccccc2o1)c1cccc(C(F)(F)F)c1 (racemic) [Compound I-3]
- Insulin Level compared with vehicle (C57BL/6j ob/ob Mice [3]): Lower
- Potency (glucose lowering) (C57BL/6j ob/ob Mice [3]): + (effective for glucose lowering at the dose of ≧125 mg/kg)

SMILES: CC(Oc1ccc(C(F)(F)F)cc1-c1nc2ccccc2o1)(C(=O)O)c1ccccc1 (stereo not shown) [Ia-365]
- Insulin Level compared with vehicle (C57BL/6j ob/ob Mice [3]): Lower
- Potency (glucose lowering) (C57BL/6j ob/ob Mice [3]): +++ (effective for glucose lowering at a dose of ≦25 mg/kg)

SMILES: OCC(Oc1ccc(C(F)(F)F)cc1)c1ccc(C(F)(F)F)cc1 (stereo not shown) [Compound 128]
- minimal effective dose (C57BL/6j ob/ob Mice [1]): ≤ 125 mg/kg
- Insulin Level compared with vehicle (C57BL/6j ob/ob Mice [1]): Lower

SMILES: O=C(O)C(Oc1ccc(C(F)(F)F)cc1-c1nc2ccccc2o1)c1ccccc1 (stereo not shown) [Compound I-369]
- Insulin Level compared with vehicle (C57BL/6j ob/ob Mice [3]): Lower
- Potency (glucose lowering) (C57BL/6j ob/ob Mice [3]): +++ (effective for glucose lowering at a dose of ≦25 mg/kg)

SMILES: O=C(O)C(Oc1cc(C(F)(F)F)cc(C(F)(F)F)c1)c1ccc(C(F)(F)F)cc1 (stereo not shown) [Compound 81]
- minimal effective dose (C57BL/6j ob/ob Mice [1]): ≤ 125 mg/kg
- Insulin Level compared with vehicle (C57BL/6j ob/ob Mice [1]): Lower

SMILES: CC(=O)NCCOC(=O)C(Oc1ccc(C(F)(F)F)cc1)c1cccc(C(F)(F)F)c1 (stereo not shown) [Compound 136, (4-trifluoromethyl-phenoxy)-(3-trifluoromethyl-phenyl)-acetic acid 2-acetylamino-ethyl ester]
- minimal effective dose (C57BL/6j ob/ob Mice [1]): ≤ 125 mg/kg
- Insulin Level compared with vehicle (C57BL/6j ob/ob Mice [1]): Lower

SMILES: CC(=O)NCCOC(=O)C(Oc1cccc(C(F)(F)F)c1)c1ccccc1C(F)(F)F (stereo not shown) [Compound 147]
- minimal effective dose (C57BL/6j ob/ob Mice [1]): > 125 mg/kg
- Insulin Level compared with vehicle (C57BL/6j ob/ob Mice [1]): Lower

SMILES: O=C(O)C(Oc1ccccc1-c1nc2ccccc2o1)c1ccc(Cl)cc1 (racemic) [Compound I-1]
- Insulin Level compared with vehicle (C57BL/6j ob/ob Mice [3]): Lower
- Potency (glucose lowering) (C57BL/6j ob/ob Mice [3]): ++ (effective for glucose lowering at a dose of >25 mg/kg but <125 mg/kg)

SMILES: O=C(O)C(Oc1ccc(Cl)cc1-c1nc2ccccc2o1)c1ccc(Cl)cc1 (racemic) [Compound I-190]
- Insulin Level compared with vehicle (C57BL/6j ob/ob Mice [3]): Lower
- Potency (glucose lowering) (C57BL/6j ob/ob Mice [3]): +++ (effective for glucose lowering at a dose of ≦25 mg/kg)

SMILES: O=C(O)C(Oc1ccc(C(F)(F)F)cn1)c1cccc(C(F)(F)F)c1 (stereo not shown) [Compound 100, (3-Trifluoromethyl-phenyl)-(5-trifluoromethyl-pyridin-2-yloxy)-acetic acid]
- minimal effective dose (C57BL/6j ob/ob Mice [1]): ≤ 125 mg/kg
- Insulin Level compared with vehicle (C57BL/6j ob/ob Mice [1]): Lower

SMILES: O=C(O)C(Oc1ccc(C(F)(F)F)cc1-c1nc2ccccc2o1)c1ccc(Cl)cc1 (single isomer, unassigned) [Compound I-372]
- Insulin Level compared with vehicle (C57BL/6j ob/ob Mice [3]): Lower
- Potency (glucose lowering) (C57BL/6j ob/ob Mice [3]): +++ (effective for glucose lowering at a dose of ≦25 mg/kg)

SMILES: O=C(O)C(Oc1ccc(C(F)(F)F)cc1)c1cccc(C(F)(F)F)c1 (racemic) [Compound 39, (4-trifluoromethyl-phenoxy)-(3-trifluoromethyl-phenyl)acetic acid]
- Insulin Level compared with vehicle (C57BL/6j ob/ob Mice [1]): Lower

SMILES: CC(Oc1ccc(C(F)(F)F)cc1)(C(=O)O)c1cccc(C(F)(F)F)c1 (stereo not shown) [Compound 120, 2-(4-trifluoromethyl-phenoxy)-2-(3-trifluoromethyl-phenyl)propionic acid]
- minimal effective dose (C57BL/6j ob/ob Mice [1]): ≤ 125 mg/kg
- Insulin Level compared with vehicle (C57BL/6j ob/ob Mice [1]): Lower
